Data on nine compounds can be found in US10647719B2, “Bicyclic compounds as dual ATX/CA inhibitors” (Hoffmann-La Roche Inc., priority 2015, dated 2020).

Usually IC50 stands for the point on the concentration scale where inhibition reaches its midpoint.

Read-outs that look alike come from different tables or passages of the source.

Assay [1] addresses Human carbonic anhydrase II (hCA-II) (Homo sapiens (Human), UniProt P00918). Briefly: Human carbonic anhydrase-II inhibition assay (absorbance, 4-nitrophenyl acetate substrate). It is filed as biochemical. The protocol: Human Carbonic Anhydrase-II Inhibition Assay
Human carbonic anhydrase II (hCA-II) inhibition was measured by an absorbance method using 4-nitrophenyl acetate (4-NPA) as its substrate. 4-NPA can be catalyzed by active hCA II via a zinc-hydroxide mechanism. The nitrophenolate in the products can be ionized to generate a bright yellow anion with high absorbance at 348 to 400 nm, as reported in the literature (Armstrong et al., J. Biol. Chem. 1966, 241, 5137-5149). OD340 nm was chosen for detecting hCA II substrate conversion.
(§1) Assay working solutions were made as follows:
Assay buffer: 50 mM MOPS, 33 mM Na2SO4, 1 mM EDTA, 0.5 mg/ml BSA, pH 7.5;
Enzyme solution: hCA-II (human, full length) stock solution (1.0 mg/mL in 20 mM HEPES, 50 mM NaCl, pH 7.4), diluted to 2133× final concentration in assay buffer;
4-NPA substrate solution: 4-NPA substrate stock solution (250 mM in DMSO, stored at −20° C.), diluted to 50× final concentration in deionized water.
Test compounds (10 mM stock in DMSO, 100 μL) were obtained in […] sample plates (Corning Costar #3655) and diluted to 0.5 mM. Column-wise serial dilutions were made by transferring 20 μL compound solutions to the next column, from column 3 up to 22. After this, 1.2 μL were transferred to 384 well assay plates (Corning Costar #3701). Then 30 μL of 16 nM hCA II solution was added (8 nM final concentration), mixed five times. 30 μL of 4-NPA substrate solution was added (2.5 mM final concentration), mixed five times. Absorbance at 340 nm was then measured immediately as time zero. The assay plates were incubated at room temperature for 1 hour and then measured as time 1 hour (Perkin Elmer EnVision 2103; Filter: Photometric 340; Light intensity 60%; Number of flashes: 10). IC50 values and Ki values were calculated from these readouts.

A further assay addresses human ATX (Homo sapiens (Human), UniProt Q13822). Briefly: Human ATX enzyme inhibition assay (fluorescence quenching, MR121 substrate). The class given is biochemical. The protocol:
Human ATX Enzyme Inhibition Assay
ATX inhibition was measured by a fluorescence quenching assay using a specifically labeled substrate analogue (MR121 substrate). To obtain this MR121 substrate, BOC and TBS protected 6-amino-hexanoic acid (R)-3-({2-[3-(2-{2-[2-(2-amino-ethoxy)-ethoxy]-ethoxy}-ethoxy)-propionylamino]-ethoxy}-hydroxy-phosphoryloxy)-2-hydroxy-propyl ester (Ferguson et al., Org Lett 2006, 8 (10), 2023) was labeled with MR121 fluorophore (CAS 185308-24-1, 1-(3-carboxypropyl)-11-ethyl-1,2,3,4,8,9,10,11-octahydro-dipyrido[3,2-b:2′,3′-i]phenoxazin-13-ium) on the free amine of the ethanolamine side and then, after deprotection, subsequently with tryptophan on the side of the aminohexanoic acid.
as §1
Assay buffer (50 mM Tris-HCl, 140 mM NaCl, 5 mM KCl, 1 mM CaCl2, 1 mM MgCl2, 0.01% Triton-X-100, pH 8.0;
ATX solution: ATX (human His-tagged) stock solution (1.08 mg/mL in 20 mM bicine, pH 8.5, 0.15 M NaCl, 10% glycerol, 0.3% CHAPS, 0.02% NaN3), diluted to 1.4-2.5× final concentration in assay buffer;
MR121 substrate solution: MR121 substrate stock solution (800 μM MR121 substrate in DMSO), diluted to 2-5× final concentration in assay buffer.
Test compounds (10 mM stock in DMSO, 8 μL) were obtained in 384 well sample plates (Corning Costar #3655) and diluted with 8 μL DMSO. Row-wise serial dilutions were made by transferring 8 μL cpd solution to the next row up to row O. The compound and control solutions were mixed five times and 2 μL were transferred to 384 well assay plates (Corning Costar #3702). Then, 15 μL of 41.7 nM ATX solution was added (30 nM final concentration), mixed five times and then incubated for 15 minutes at 30° C. 10 μL of MR121 substrate solution was added (1 μM final concentration), mixed 30 times and then incubated for 15 minutes at 30° C.

Where [2] appears, read: hCA II 8 nM, 4-NPA 2.5 mM, absorbance 340 nm, room temperature 1 hour, read-out: CA-II IC50.
The mark [3] stands for this setting: human His-tagged ATX 30 nM, MR121 substrate 1 μM, 30° C., read-out: ATX IC50.

As for `Cc1nnn(Cc2cc(C(F)(F)F)cnc2CCC(=O)N2CC3=C(C2)CN(C(=O)c2ccc(S(N)(=O)=O)cc2F)C3)n1` [Example 3.10, 3-fluoro-4-[2-[3-[3-[(5-methyltetrazol-2-yl)methyl]-5-(trifluoromethyl)pyridin-2-yl]propanoyl]-1,3,4,6-tetrahydropyrrolo[3,4-c]pyrrole-5-carbonyl]benzenesulfonamide], the IC50 in assay [1] came to 5 nM; at human ATX it was 2 nM.

On to `CC(C)(C)C(=O)Nc1cc2ccccc2nc1COC(=O)N1CC2=C(C1)CN(C(=O)c1ccc(S(N)(=O)=O)cc1F)C2` [Example 4.01, [3-(2,2-dimethylpropanoylamino)quinolin-2-yl]methyl 2-(2-fluoro-4-sulfamoylbenzoyl)-1,3,4,6-tetrahydropyrrolo[3,4-c]pyrrole-5-carboxylate], for which the IC50 in assay [1] (setting [2]) was 3.6 nM; on human ATX (setting [3]), 3 nM.

`NS(=O)(=O)c1ccc(C(=O)N2CC3=C(CN(C(=O)COc4ccc(OC(F)(F)F)cc4)C3)C2)nc1` [Example 3.04, 6-[2-[2-[4-(trifluoromethoxy)phenoxy]acetyl]-1,3,4,6-tetrahydropyrrolo[3,4-c]pyrrole-5-carbonyl]pyridine-3-sulfonamide]: the half-inhibitory concentration (IC50) in assay [1] amounted to 17 nM; on human ATX it was 7 nM.

With `Cc1ccc(NC(=O)C(C)(C)C)c(COC(=O)N2CC3=C(C2)CN(C(=O)c2ccc(S(N)(=O)=O)cc2F)C3)n1` [Example 1.17, [3-(2,2-dimethylpropanoylamino)-6-methylpyridin-2-yl]methyl 2-(2-fluoro-4-sulfamoylbenzoyl)-1,3,4,6-tetrahydropyrrolo[3,4-c]pyrrole-5-carboxylate], the IC50 in assay [1] (setting [2]) amounted to 4 nM; at human ATX (setting [3]), 11 nM.

Turning to `NS(=O)(=O)c1ccc(C(=O)N2CC3=C(CN(C(=O)OCc4ccc(OC(F)(F)F)cc4)C3)C2)c(F)c1` [Example 2.03, [4-(trifluoromethoxy)phenyl]methyl 2-(2-fluoro-4-sulfamoylbenzoyl)-1,3,4,6-tetrahydropyrrolo[3,4-c]pyrrole-5-carboxylate], the IC50 in assay [1] was found to be 6 nM; at human ATX, 2 nM.

In the case of `CC(C)(C)C(=O)Nc1cc(Cl)cnc1COC(=O)N1CC2=C(C1)CN(C(=O)c1ccc(S(N)(=O)=O)c(F)c1)C2` [Example 1.13, [5-chloro-3-(2,2-dimethylpropanoylamino)pyridin-2-yl]methyl 2-(3-fluoro-4-sulfamoylbenzoyl)-1,3,4,6-tetrahydropyrrolo[3,4-c]pyrrole-5-carboxylate], the IC50 in assay [1] (setting [2]) stood at 20.6 nM; at human ATX (setting [3]), 2 nM.

Take `NS(=O)(=O)c1ccc(C(=O)N2CC3=C(CN(C(=O)/C=C/c4ccc(OC(F)(F)F)cc4)C3)C2)c(F)c1` [Example 3.00, 3-Fluoro-4-[2-[(E)-3-[4-(trifluoromethoxy)phenyl]prop-2-enoyl]-1,3,4,6-tetrahydropyrrolo[3,4-c]pyrrole-5-carbonyl]benzenesulfonamide]: the half-maximal inhibitory concentration (IC50) is 9 nM in assay [1] (setting [2]) and 5 nM at human ATX (setting [3]).

As to `CC(C)(C)C(=O)Nc1cc(C(F)(F)F)cnc1COC(=O)N1CC2=C(C1)CN(S(=O)(=O)c1ccc(S(N)(=O)=O)cc1F)C2` [Example 5.00, [3-(2,2-dimethylpropanoylamino)-5-(trifluoromethyl)pyridin-2-yl]methyl 5-(2-fluoro-4-sulfamoylphenyl)sulfonyl-1,3,4,6-tetrahydropyrrolo[3,4-c]pyrrole-2-carboxylate], the half-maximal inhibitory concentration (IC50) in assay [1] (setting [2]) was determined as 17.6 nM; at human ATX (setting [3]) it was 7 nM.

For the compound `CC(C)(C)C(=O)Nc1cc(C(F)(F)F)cnc1COC(=O)N1CC2=C(C1)CN(C(=O)c1cc(F)c(S(N)(=O)=O)cc1F)C2` [Example 1.01, [3-(2,2-dimethylpropanoylamino)-5-(trifluoromethyl)pyridin-2-yl]methyl 2-(2,5-difluoro-4-sulfamoylbenzoyl)-1,3,4,6-tetrahydropyrrolo[3,4-c]pyrrole-5-carboxylate], the figures for the IC50 (in assay [1] (setting [2]); at human ATX (setting [3])) were 7 nM and 10 nM, respectively.
